Reference: ChEMBL document CHEMBL1765077, “Nonterpenoid C15 acetogenins from Laurencia marilzae” (2011)

Legend:
Format in all cases: functional
SW1573 = experiment: Antiproliferative activity against human SW1573 cells after 48 hrs; conditions: SW1573, 48 h
WiDr = experiment: Antiproliferative activity against human WiDr cells after 48 hrs
HBL-100 = experiment: Antiproliferative activity against human HBL100 cells after 48 hrs; conditions: HBL-100, 48 h
T47D = experiment: Antiproliferative activity against human T47D cells after 48 hrs
A2780 = experiment: Antiproliferative activity against human A2780 cells after 48 hrs; conditions: A2780, 48 h
HeLa = experiment: Antiproliferative activity against human HeLa cells after 48 hrs

Measured: GI50

COC(=O)/C=C\[C@H]1C[C@H]2O[C@@H](C[C@H]2Cl)[C@@H](Br)C[C@H]2O[C@@H]2[C@H](C)O1
> 10 µg/mL: all assays above

C[C@@H]1O[C@@H](C=C=CBr)C[C@H]2O[C@@H](C[C@H]2Cl)[C@@H](Br)C[C@H]2O[C@H]12
> 10 µg/mL: all assays above

C/C=C/[C@H]1C/C=C\C[C@@H](Cl)[C@@H](C[C@H](C=C=CBr)OC(C)=O)O1
> 10 µg/mL: all assays above

C#C/C=C\CC(O)C(Cl)C/C=C\CC(Cl)C(Br)CC (mixture of isomers)
> 10 µg/mL: all assays above

C/C=C/[C@H]1C/C=C\C[C@@H](Cl)[C@@H](C[C@@H](O)C=C=CBr)O1 [MARILZALLENE]
> 10 µg/mL: all assays above

C[C@H]1/C=C/C[C@H](Br)[C@@H]2C[C@@H](Cl)[C@@H](C[C@H](C=C=CBr)O1)O2 [OBTUSALLENE IV]
> 10 µg/mL: all assays above
